Patent publication US8865622B2, “Use of active ingredients for controlling nematodes in nematode-resistant crops” (priority 2010, dated 2014)

B1: AXN2: genetically modified Jack soybean variety known to produce a nematicidal protein (gene axn2, Table 1) (protein)
chain: MASAANAGQLGNLPGVTSMGMGYDVNGLYASPESLLGQPLFDFGGELDSIEIEGRSYTFPRSMHVHTYFHSDFKQDVSKEIEEYREKMSQHVGVSGRYKLFSASLSVDFTTTDQQLTEITYSSTREAHVLWYISLPGAATLRSMLRRDFRDDLNNPNMPAMELFKRYGPYYISEAAVGGRLDYSAASKTLKMDSSQSLSTTAEMSYKALVGEIKIEHGSEMEKQVNSFRSNSTIRLTATGGKPGMTDRILHGPDSQQAFSQWAESLLDYATLMDFSTESLQPIWALADKPERRVELEDAFPEFMKQSQQSIPKVDKVLLMDARPPMVKAGEDSGSGASEDLAVFNPSTSNGYKMVGQFGQRNHASVADGHAPIFKDLFDLGVLKAPVGWQRVWDDAGSGKSKDYACWRAIPPQGYRALGDVMMLATSGYNPPNLPDYVCVHQSLCADVQTLQNRVWWDKGTGARKDVSLWQPGAAGAVASSCFAGVPNYNNPPNSGDIERLRGSIACVKTSAIASM
modifications: AXMI-205(trun20)
B2: AXMI031: genetically modified Jack soybean variety known to produce a nematicidal protein (gene axmi031, Table 1) (protein, listed as Bacillus thuringiensis)
chain: MNMNNTKLNARALPSFIDYFNGIYGFATGIKDIMNMIFKTDTGGDLTLDEILKNQQLLNEISGKLDGVNGSLNDLIAQGNLNTELSKEILKIANEQNQVLNDVNNKLDAINTMLNIYLPKITSMLSDVMKQNYALSLQIEYLSRQLQEISDKLDVINLNVLINSTLTEITPSYQRIKYVNEKFDKLTFATESTLRAKQGIFNEDSFDNNTLENLTDLAELAKSITKNDVDSFEFYLHTFHDVLIGNNLFGRSALKTASELITKDEIKTSGSEIGKVYSFLIVLTSLQAKAFLTLTTCRKLLGLSDIDYTSIMNEHLNNEKNEFRDNILPALSNKFSNPSYAKTIGSDNYAKVILESEPGYALVGFEIINDPIPVLKAYKAKLKQNYQVDNQSLSEIVYLDIDKLFCPENSEQKYYTKNLTFPDGYVITKITFEKKLNNLIYEATANFYDPSTGDIDLNKKQVESTFPQTDYITMDIGDDDGIYMPLGVISETFLTPINSFGLEVDAKSKTLTLKCKSYLREYLLESDLKNKETGLIAPPNVFISNVVKNWDIEEDSLEPWVANNKNAYVDNTGGIERSKALFTQGDGEFSQFIGDKLKPNTDYIIQYTVKGKPAIYLKNKSTGYITYEDTNGNSEEFQTIAVKFTSETDLSQTHLVFKSQNGYEAWGDNFIILEAKLFETPESPELIKFNDWERFGTTYITGNELRIDHSRGGYFRQSLNIDSYSTYDLSFSFSGLWAKVIVKNSRGVVLFEKVKNNGSSYEDISESFTTASNKDGFFIELTAERTSSTFHSFRDISIKEKIE

What was measured:
[1] = system: Jack soybean plants (nontransgenic, AXN2, AXMI031); assay: Plant height of soybean plants in the SCN pot test; type: in vivo
Method: (§1) Two tests were planted with Jack (an SCN resistant soybean variety with PI 88788 resistance) and two genetically modified Jack varieties (AXN2 and AXMI031) known to produce a nematicidal protein. The seed were treated with a color/coating base or the same base plus one of two different rates of fluopyram (experiment 1 used 0.075 mg fluopyram/seed and experiment 2 used 0.15 mg fluopyram/seed). The SCN used to inoculate both tests were collected from an inbred colony (OP50) with the ability to overcome PI 88788 resistance.
(§2) Tests were conducted as non-randomized blocks with a minimum of 10 replicates. Seed were planted in individual 4″ clay pots with coarse sand and inoculated with approximately 20,000 OP50 juveniles in ten equal inoculations beginning at planting and again approximately every third day. Plants were maintained in a germination chamber. Blocks were rotated approximately every third day to minimize potential influence of environmental variance. Two months after planting, plants were harvested and cysts were collected and counted to evaluate the efficacy of the nematicide and traits, both individually and in combination with each other.

[2] = system: SCN (inbred colony OP50, able to overcome PI 88788 resistance); assay: SCN cyst count on soybean plants grown from treated seed, pot test in germination chamber; type: in vivo; settings: for reduction of SCN populations: nontransgenic Jack plants, cysts counted two months after planting; for percent reduction of average number of cysts compared to Jack: base (color/coating) treatment only, trait effect
Method: as §1, §2

Row | Molecule | effect on average plant height ([1]; both genetically modified varieties (Axn2, Axmi031), both experiments (0.075 and 0.15 mg/seed)) | effect on average plant height ([1]; nontransgenic control Jack plants, both experiments) | reduction of SCN populations ([2]; first experiment, 0.075 mg fluopyram/seed) | approximate reduction (SCN) provided by fluopyram ([2]; high rate (0.15 mg/seed), transgenic Axmi031 plants) | approximate reduction (SCN) provided by fluopyram ([2]; high rate (0.15 mg/seed), transgenic Axn2 plants) | approximate reduction (SCN) provided by fluopyram ([2]; low rate (0.075 mg/seed), transgenic Axmi031 plants) | approximate reduction (SCN) provided by fluopyram ([2]; low rate (0.075 mg/seed), transgenic Axn2 plants) | reduction of SCN populations ([2]; second experiment, 0.15 mg fluopyram/seed) | percent reduction of average number of cysts compared to Jack ([2]; first experiment) | percent reduction of average number of cysts compared to Jack ([2]; second experiment)
1 | O=C(NCCc1ncc(C(F)(F)F)cc1Cl)c1ccccc1C(F)(F)F [fluopyram, N-{2-[3-chloro-5-(trifluoromethyl)-2-pridinyl]ethyl}-2-(trifluoromethyl)benzamide] | increased average plant height | not having an effect | 26% | ~40% | ~40% | ~20% | ~20% | 43% | – | –
2 | B1 | – | – | – | – | – | – | – | – | 20% | 43%
3 | B2 | – | – | – | – | – | – | – | – | 92% | 88%
